Tests used:
mitral VEC [1] = assay: Cellular migration assay (Transwell), mitral VEC clones; assay type: cell-based, Ovine; details: for EndMT-increased migration towards serum and bFGF: TGFβ-treated mitral VEC clones (n=3), inhibitor 1.0 μM 30 min before and during 6 hour assay
Description: (§1) The lower chambers contained 0.1% BSA/EBM-2 media alone or EBM with serum and basic FGF as a chemoattractants. Cells were allowed to migrate for 6 hours at 37° C. (FIG. 6) Cells that migrated through the pores were fixed with methanol and stained with Eosin-Y, Azure A and Methylene Blue for visualization and quantification using Three Step Stain Set (VWR, PA, USA #48218-567).

[2] = tested on: carotid artery endothelial cells (CAEC); assay: EndMT assay with qPCR in TGFβ1-treated CAEC; assay type: cell-based, Ovine; details: for EndMT and fibrosis marker mRNA in CAEC: presence or absence of inhibitor
Description: (§2) Ovine mitral VEC and CAEC were plated at 10,000 cells/cm^2 on gelatin-coated dishes. After 24 hours, EBM-B was replaced with fresh EBM-B containing 1 ng/ml human TGFβ1 (R&D Systems, MN, USA). Cells were harvested with Liberase ([…]) 96 hours later, and used for flow cytometry. Cells were analyzed simultaneously for VE-cadherin, α-SMA and CD45 by flow cytometry as described above.
(§3) Total cellular RNA was extracted from mitral VEC clones (C5, D1, E5, E10 and E10-2) and CAEC (n=2) with an RNeasy Micro extraction kit (Qiagen, Valencia, Calif., #74004). Reverse transcriptase reactions were performed using an iScript cDNA Synthesis Kit (Bio-Rad, CA, USA #170-8890). qPCR was performed using Kapa Sybr Fast ABI Prism 2×qPCR Master Mix (KAPA BioSystems, MA, USA # KK4604). Amplification was carried out in an ABI 7500 (Applied Biosystems, Foster City, Calif.). A standard curve for each gene was generated to determine amplification efficiency. RPS9 was used as housekeeping gene expression reference. Fold increases in gene expression were calculated according to 2 delta Ct method^28,29, with each amplification reaction performed in triplicate.

mitral VEC [3] = assay: EndMT assay with qPCR in TGFβ1-treated mitral VEC clones; assay type: cell-based, Ovine; details: for NFATc1 mRNA / αSMA, Slug, MMP-2, collagen 1, collagen 3, TGFβ1, TGFβ2 and TGFβ3 mRNA levels: inhibitor 0.5 μM during the 4 day TGFβ1 treatment, mitral VEC clones
Description: as §2, §3

[4] = tested on: carotid artery endothelial cells (CAEC); assay: Cellular migration assay (Transwell), CAEC; assay type: cell-based, Ovine; details: 6 hour assay; for Migration of CAEC, response to inhibitor: control and TGFβ1-treated CAEC, inhibitor 1.0 μM
Description: as §1

TGF-β = details: cited from earlier work
[5] = tested on: carotid artery endothelial cells (CAEC); assay: EndMT assay with flow cytometry, CAEC; assay type: cell-based, Ovine; details: TGFβ-treated and non-treated CAECs
Description: (§4) Ovine MVs were minced and digested for 30 minutes at 37° C. with Liberase (Roche Diagnostics, IN, USA, #5401119001), a blend of purified collagenases I and II. Isolated cells were fixed using Flow Cytometry Fixation Buffer (R&D Systems, MN, USA, #FC004) and labeled in Flow Cytometry Permeabilization/Wash Buffer I (R&D Systems, MN, USA, #FC005) for 45 minutes (100,000 cells/100 μl Buffer I). Murine anti-human CD45-FITC or -APC (1:50; AbD Serotec, NC, USA, # MCA2220F and #559864), VE-cadherin-PE or -FITC (1:100; R&D Systems, MN, USA, # FAB9381P and AbD Serotec, NC, USA, # AHP628F), and α-smooth muscle actin (αSMA)-APC or -PE (1:100; R&D Systems, MN, USA, # IC1420P and # IC1420A) were used.
as §2

mitral VEC [6] = assay: EndMT assay with flow cytometry, mitral VEC clones; assay type: cell-based, Ovine
Description: as §4, §2

[7] = tested on: early stage diffuse cutaneous systemic sclerosis; details: cited from earlier work
[8] = tested on: scarring after glaucoma surgery; details: rabbits; cited from earlier work
TGF-beta3 = target: T1, TGF-beta3 (Homo sapiens, UniProt P10600); details: cited from earlier work
T1 sequence (P10600 301-412 limits assumed): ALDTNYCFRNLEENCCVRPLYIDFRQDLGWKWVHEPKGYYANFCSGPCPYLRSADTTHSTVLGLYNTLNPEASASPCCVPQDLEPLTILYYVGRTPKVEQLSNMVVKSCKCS

TGF-beta2 = target: T2, TGF-beta2 (Homo sapiens, UniProt P61812); details: cited from earlier work
T2 sequence (P61812 303-414 limits assumed): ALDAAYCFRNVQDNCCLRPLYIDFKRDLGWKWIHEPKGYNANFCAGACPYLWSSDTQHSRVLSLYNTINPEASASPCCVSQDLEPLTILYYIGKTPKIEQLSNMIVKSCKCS

scar formation = details: first clinical trials; intractable glaucoma patients, trabeculectomy; cited from earlier work
[9] = listed as CD45 phosphatase inhibitor
[10] = qPCR, listed as CD45 phosphatase inhibitor

CC(C)(C)C(=O)Nc1ccc2c(c1)C(=O)C(=O)c1ccccc1-2 [CD45 PTPase inhibitor, N-(9,10-dioxo-9,10-dihydro-phenanthren-2-yl)-2,2-dimethyl propionamide]
EndMT-increased migration towards serum and bFGF (mitral VEC [1]): significantly inhibited
EndMT-increased migration towards serum and bFGF (mitral VEC [1]; [9]): specifically blocks
EndMT and fibrosis marker mRNA in CAEC [2]: no changes
EndMT and fibrosis marker mRNA in CAEC [2, 9]: no effect
NFATc1 mRNA (mitral VEC [3]; qPCR): restored
αSMA, Slug, MMP-2, collagen 1, collagen 3, TGFβ1, TGFβ2 and TGFβ3 mRNA levels (mitral VEC [3]; qPCR): significantly reduced
NFATc1 mRNA (mitral VEC [3]; [10]): blocks the decrease
αSMA, Slug, MMP-2, collagen 1, collagen 3, TGFβ1, TGFβ2 and TGFβ3 mRNA levels (mitral VEC [3]; [10]): reduces
induction of 7 EndMT/fibrosis markers (α-SMA, Slug, MMP2, NFATc1, TGFβ2, collagen 1 and collagen 3) (mitral VEC [3]; summary statement): blocks
Migration of CAEC, response to inhibitor [4]: no response
Migration of CAEC, response to inhibitor [4, 9]: no effect

Cc1ccc(=O)n(-c2ccccc2)c1 [Pirfenidone, 5-methyl-1-phenyl-2(1H)-pyridone]
TGF-β promoter activity, TGF-β protein secretion, TGF-β-induced Smad2 phosphorylation and generation of reactive oxygen species (TGF-β): reduces

TGFβ1: human TGFβ1 (R&D Systems), used at 1 ng/ml to induce EndMT
migration towards serum and bFGF after TGFβ treatment (mitral VEC [1]; mitral VEC clones (n=3), TGFβ1 4 days, 6 hour assay): significantly increased
CD45, VE-cadherin or αSMA mRNA levels in CAEC [2]: No changes
CD45 or αSMA expression in CAEC, flow cytometry [5]: did not express
Collagen 1, collagen 3, TGFβ1, TGFβ2 and TGFβ3 mRNA transcripts (mitral VEC [3]; TGFβ1-treated mitral VEC clones, qPCR): increased
Slug, MMP2 and NFATc1 mRNA (mitral VEC [3]; TGFβ1-treated mitral VEC, qPCR): modulated as expected
CD45 and αSMA mRNA (mitral VEC [3]; five mitral VEC clones, TGFβ1 4 days, qPCR): significant increases
migration of CAEC after TGFβ treatment ([4]; CAEC): no increase
α-SMA, flow cytometry (mitral VEC [6]; TGFβ1-treated mitral VEC clones): significantly increased
CD11b and CD14 expression, flow cytometry (mitral VEC [6]; TGFβ1-treated mitral VEC, data not shown): No expression was detected
cells positive for CD45 (mitral VEC [6]; four additional mitral VEC clones treated with TGFβ1 1 ng/ml 96 hours): 19-88%
CD45 and αSMA expression, flow cytometry (mitral VEC [6]; mitral VEC clone E10, 1 ng/ml TGFβ1, 96 hours): strong induction
CD45, flow cytometry (mitral VEC [6]; seven mitral VEC clones, 4 day exposure to TGFβ1): significantly increased

CAT-192: a TGF-β1 neutralizing antibody
adverse events ([7]; in vivo): more adverse events
effect on early stage diffuse cutaneous systemic sclerosis ([7]; phase I/II trial NCT00043706): did not show effect

B1: CAT-152: fully human TGF-beta2 neutralizing antibody (antibody, chains of the INN, looked up, V domains shown)
VH: EVQLVESGGGVVQPGRSLRLSCAASGFTFSSYGMHWVRQAPGKGLEWVAVIWYDGSNKYYADSVKGRFTISRDNSKNTLYLQMDSLRAEDTAVYYCGRTLESSLWGQGTLVTVSS
VL: SSELTQDPAVSVALGQTVRITCQGDSLRSYYASWYQQKPGQAPVLVIYGKNNRPSGIPDRFSGSSSGNTASLTITGAQAEDEADYYCNSRDSSSTHRGVFGGGTKLTVL
scarring after glaucoma surgery [8]: capable of inhibiting
affinity for TGF-beta3 (TGF-beta3): lower affinity
affinity for TGF-beta2 (TGF-beta2): high affinity
scar formation (scar formation): possible effects

— US20180311356A1, “METHOD TO INHIBIT ENDOTHELIAL-TO-MESENCHYMAL TRANSITION” (THE CHILDREN'S MEDICAL CENTER CORPORATION, priority 2015, published 2018)
